# Test results taken from US10045983B2, “Heteroaryl pyridone and aza-pyrodine compounds” (Genentech, Inc., priority 2011, dated 2018).
# Assay: CD69 Whole Blood Assay (CD69 Hu Blood FACS)
# Type: cell-based, human
# Conditions: Lymphocyte; human whole blood, anti-IgM activated B lymphocytes, FACS; IC70; Table 2 (unit inferred); read-out: CD69 Hu Blood FACS (IC70)
# Outline: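 Human whole blood stimulated by crosslinking surface IgM with goat F(ab′)2 anti-human IgM; inhibition of CD69 expression on B lymphocytes measured by flow cytometry.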
row,SMILES,IC70
1,"C[C@H]1COCCN1C(=O)c1ccc(Nc2cc(-c3ccnc(N4CCn5c(cc6c5CC(C)(C)C6)C4=O)c3CO)cn(C)c2=O)nc1 [Example 257, 3-[3-(hydroxymethyl)-4-[1-methyl-5-[[5-[(3 S)-3-methylmorpholine-4-carbonyl]-2-pyridyl]amino]-6-oxo-3-pyridyl]-2-pyridyl]-7,7-dimethyl-1,2,6,8-tetrahydrocyclopenta[3,4]pyrrolo[3,5-b]pyrazin-4-one]",21.6 nM
2,"Cn1nc(-c2ccnc(-n3ncc4c5c(sc4c3=O)CCCC5)c2CO)cc(Nc2ccc(C(=O)N3CCOCC3)cn2)c1=O [Example 258, 3-[3-(hydroxymethyl)-4-[1-methyl-5-[[5-(morpholine-4-carbonyl)-2-pyridyl]amino]-6-oxo-pyridazin-3-yl]-2-pyridyl]-6,7,8,9-tetrahydrobenzothiopheno[2,3-d]pyridazin-4-one]",646 nM
3,"Cn1nc(-c2ccnc(N3CCc4c(sc5c4CC(C)(C)C5)C3=O)c2CO)cc(Nc2ccc(C(=O)N3CCOCC3)cn2)c1=O [Example 259, 3-[3-(hydroxymethyl)-4-[1-methyl-5-[[5-(morpholine-4-carbonyl)-2-pyridyl]amino]-6-oxo-pyridazin-3-yl]-2-pyridyl]-7,7-dimethyl-1,2,6,8-tetrahydrocyclopenta[3,4]thieno[1,3-c]pyridin-4-one]",301 nM
4,"Cc1cc(Nc2cc(-c3ccnc(N4CCn5c(cc6c5CC(C)(C)C6)C4=O)c3CO)cn(C)c2=O)n[nH]1 [Example 260, 3-[3-(hydroxymethyl)-4-[1-methyl-5-[(5-methyl-1H-pyrazol-3-yl)amino]-6-oxo-3-pyridyl]-2-pyridyl]-7,7-dimethyl-1,2,6,8-tetrahydrocyclopenta[3,4]pyrrolo[3,5-b]pyrazin-4-one]",60.6 nM
5,"Cc1cc(Nc2cc(-c3ccnc(N4CCc5c(c(F)c6n5CCCC6)C4=O)c3CO)cn(C)c2=O)nn1C [Example 261, 2-[4-[5-[(1,5-dimethylpyrazol-3-yl)amino]-1-methyl-6-oxo-3-pyridyl]-3-(hydroxymethyl)-2-pyridyl]-10-fluoro-3,4,6,7,8,9-hexahydropyrido[3,4-b]indolizin-1-one]",2900 nM
6,"Cc1cnc(Nc2cc(-c3ccnc(N4CCn5c(cc6c5CC(C)(C)C6)C4=O)c3CO)cn(C)c2=O)o1 [Example 262, 3-[3-(hydroxymethyl)-4-[1-methyl-5-[(5-methyloxazol-2-yl)amino]-6-oxo-3-pyridyl]-2-pyridyl]-7,7-dimethyl-1,2,6,8-tetrahydrocyclopenta[3,4]pyrrolo[3,5-b]pyrazin-4-one]",577 nM
7,"Cn1nc(-c2ccnc(N3CCn4c5c(c(F)c4C3=O)CCCC5)c2CO)cc(Nc2ccncn2)c1=O [Example 263, 10-fluoro-2-[3-(hydroxymethyl)-4-[1-methyl-6-oxo-5-(pyrimidin-4-ylamino)pyridazin-3-yl]-2-pyridyl]-3,4,6,7,8,9-hexahydropyrazino[1,2-a]indol-1-one]",2200 nM
8,"Cn1cc(-c2ccnc(N3CCn4c(cc5c4CC(C)(C)C5)C3=O)c2CO)cc(Nc2ccnc(C(C)(C)O)n2)c1=O [Example 264, 3-[3-(hydroxymethyl)-4-[5-[[2-(1-hydroxy-1-methyl-ethyl)pyrimidin-4-yl]amino]-1-methyl-6-oxo-3-pyridyl]-2-pyridyl]-7,7-dimethyl-1,2,6,8-tetrahydrocyclopenta[3,4]pyrrolo[3,5-b]pyrazin-4-one]",653 nM
9,"CCC(=O)N1CCn2nc(Nc3cc(-c4ccnc(N5CCn6c(cc7c6CC(C)(C)C7)C5=O)c4CO)cn(C)c3=O)cc2C1 [Example 265, 3-[3-(hydroxymethyl)-4-[1-methyl-6-oxo-5-[(5-propanoyl-6,7-dihydro-4H-pyrazolo[1,5-a]pyrazin-2-yl)amino]-3-pyridyl]-2-pyridyl]-7,7-dimethyl-1,2,6,8-tetrahydrocyclopenta[3,4]pyrrolo[3,5-b]pyrazin-4-one]",9.1 nM
10,"Cn1cc(-c2ccnc(N3CCn4c(cc5c4CC(C)(C)C5)C3=O)c2CO)cc(Nc2cc(C3COC3)[nH]n2)c1=O [Example 266, 3-[3-(hydroxymethyl)-4-[1-methyl-5-[[5-(oxetan-3-yl)-1H-pyrazol-3-yl]amino]-6-oxo-3-pyridyl]-2-pyridyl]-7,7-dimethyl-1,2,6,8-tetrahydrocyclopenta[3,4]pyrrolo[3,5-b]pyrazin-4-one]",29.3 nM
11,"Cc1nnc(Nc2cc(-c3ccnc(N4CCn5c(cc6c5CC(C)(C)C6)C4=O)c3CO)cn(C)c2=O)s1 [Example 267, 3-[3-(hydroxymethyl)-4-[1-methyl-5-[(5-methyl-1,3,4-thiadiazol-2-yl)amino]-6-oxo-3-pyridyl]-2-pyridyl]-7,7-dimethyl-1,2,6,8-tetrahydrocyclopenta[3,4]pyrrolo[3,5-b]pyrazin-4-one]",225 nM
12,"Cn1cnc(Nc2cc(-c3ccnc(N4CCn5c(cc6c5CC(C)(C)C6)C4=O)c3CO)cn(C)c2=O)c1 [Example 268, 3-[3-(hydroxymethyl)-4-[1-methyl-5-[(1-methylimidazol-4-yl)amino]-6-oxo-3-pyridyl]-2-pyridyl]-7,7-dimethyl-1,2,6,8-tetrahydrocyclopenta[3,4]pyrrolo[3,5-b]pyrazin-4-one]",212 nM
13,"Cn1cc(-c2ccnc(N3CCn4c(cc5c4CC(C)(C)C5)C3=O)c2CO)cc(Nc2ccc(C(=O)N3CCOCC3)cn2)c1=O [Example 269, 3-[3-(hydroxymethyl)-4-[1-methyl-5-[[5-(morpholine-4-carbonyl)-2-pyridyl]amino]-6-oxo-3-pyridyl]-2-pyridyl]-7,7-dimethyl-1,2,6,8-tetrahydrocyclopenta[3,4]pyrrolo[3,5-b]pyrazin-4-one]",25.1 nM
14,"CN1CCn2nc(Nc3cc(-c4ccnc(N5CCn6c(cc7c6CCCC7)C5=O)c4CO)cn(C)c3=O)nc2C1 [Example 270, 2-[3-(hydroxymethyl)-4-[1-methyl-5-[(7-methyl-6,8-dihydro-5H-[1,2,4]triazolo[1,5-a]pyrazin-2-yl)amino]-6-oxo-3-pyridyl]-2-pyridyl]-3,4,6,7,8,9-hexahydropyrazino[1,2-a]indol-1-one]",5900 nM
15,"C[C@H]1CN(C2COC2)CCN1c1ccc(Nc2cc(-c3ccnc(N4CCn5c(cc6c5CC(C)(C)C6)C4=O)c3CO)c[nH]c2=O)nc1 [Example 271, 3-[3-(hydroxymethyl)-4-[5-[[5-[(2S)-2-methyl-4-(oxetan-3-yl)piperazin-1-yl]-2-pyridyl]amino]-6-oxo-1H-pyridin-3-yl]-2-pyridyl]-7,7-dimethyl-1,2,6,8-tetrahydrocyclopenta[3,4]pyrrolo[3,5-b]pyrazin-4-one]",24.5 nM
16,"Cn1cc(-c2ccnc(N3CCn4c(cc5c4CC(C)(C)C5)C3=O)c2CO)cc(Nc2ccc(C3CN(C4COC4)C3)cn2)c1=O [Example 272, 3-[3-(hydroxymethyl)-4-[1-methyl-5-[[5-[1-(oxetan-3-yl)azetidin-3-yl]-2-pyridyl]amino]-6-oxo-3-pyridyl]-2-pyridyl]-7,7-dimethyl-1,2,6,8-tetrahydrocyclopenta[3,4]pyrrolo[3,5-b]pyrazin-4-one]",34 nM
17,"Cn1cc(-c2ccnc(N3CCn4c(cc5c4CC(C)(C)C5)C3=O)c2CO)cc(Nc2ccccn2)c1=O [Example 273, 3-[3-(hydroxymethyl)-4-[1-methyl-6-oxo-5-(2-pyridylamino)-3-pyridyl]-2-pyridyl]-7,7-dimethyl-1,2,6,8-tetrahydrocyclopenta[3,4]pyrrolo[3,5-b]pyrazin-4-one]",299 nM
18,"Cc1cnc(Nc2cc(-c3ccnc(N4CCn5c(cc6c5CC(C)(C)C6)C4=O)c3CO)cn(C)c2=O)cn1 [Example 274, 3-[3-(hydroxymethyl)-4-[1-methyl-5-[(5-methylpyrazin-2-yl)amino]-6-oxo-3-pyridyl]-2-pyridyl]-7,7-dimethyl-1,2,6,8-tetrahydrocyclopenta[3,4]pyrrolo[3,5-b]pyrazin-4-one]",466 nM
19,"Cn1cc(-c2ccnc(N3CCn4c(cc5c4CC(C)(C)C5)C3=O)c2CO)cc(Nc2ccc(F)cn2)c1=O [Example 275, 3-[4-[5-[(5-fluoro-2-pyridyl)amino]-1-methyl-6-oxo-3-pyridyl]-3-(hydroxymethyl)-2-pyridyl]-7,7-dimethyl-1,2,6,8-tetrahydrocyclopenta[3,4]pyrrolo[3,5-b]pyrazin-4-one]",423 nM
20,"Cn1cc(-c2ccnc(N3CCn4c(cc5c4CC(C)(C)C5)C3=O)c2CO)cc(Nc2ccc(C#N)cn2)c1=O [Example 276, 6-[[5-[2-(7,7-dimethyl-4-oxo-1,2,6,8-tetrahydrocyclopenta[3,4]pyrrolo[3,5-b]pyrazin-3-yl)-3-(hydroxymethyl)-4-pyridyl]-1-methyl-2-oxo-3-pyridyl]amino]pyridine-3-carbonitrile]",358 nM
21,"COc1ccc(Nc2cc(-c3ccnc(N4CCn5c(cc6c5CC(C)(C)C6)C4=O)c3CO)cn(C)c2=O)nc1 [Example 277, 3-[3-(hydroxymethyl)-4-[5-[(5-methoxy-2-pyridyl)amino]-1-methyl-6-oxo-3-pyridyl]-2-pyridyl]-7,7-dimethyl-1,2,6,8-tetrahydrocyclopenta[3,4]pyrrolo[3,5-b]pyrazin-4-one]",339 nM
22,"Cn1cc(-c2ccnc(N3CCn4c(cc5c4CC(C)(C)C5)C3=O)c2CO)cc(Nc2ccc(C3CC3)cn2)c1=O [Example 278, 3-[4-[5-[(5-cyclopropyl-2-pyridyl)amino]-1-methyl-6-oxo-3-pyridyl]-3-(hydroxymethyl)-2-pyridyl]-7,7-dimethyl-1,2,6,8-tetrahydrocyclopenta[3,4]pyrrolo[3,5-b]pyrazin-4-one]",3200 nM
23,"Cn1cc(-c2ccnc(N3CCn4c(cc5c4CC(C)(C)C5)C3=O)c2CO)cc(Nc2ccc(C(F)(F)F)cn2)c1=O [Example 279, 3-[3-(hydroxymethyl)-4-[1-methyl-6-oxo-5-[[5-(trifluoromethyl)-2-pyridyl]amino]-3-pyridyl]-2-pyridyl]-7,7-dimethyl-1,2,6,8-tetrahydrocyclopenta[3,4]pyrrolo[3,5-b]pyrazin-4-one]",2100 nM
24,"Cn1nc(Nc2cc(-c3ccnc(N4CCn5c(cc6c5CC(C)(C)C6)C4=O)c3CO)cn(C)c2=O)cc1C(=O)N1CCOCC1 [Example 280, 3-[3-(hydroxymethyl)-4-[1-methyl-5-[[1-methyl-5-(morpholine-4-carbonyl)pyrazol-3-yl]amino]-6-oxo-3-pyridyl]-2-pyridyl]-7,7-dimethyl-1,2,6,8-tetrahydrocyclopenta[3,4]pyrrolo[3,5-b]pyrazin-4-one]",14.1 nM
